Reference: patent US5491155A, “Substituted thiadiazoles, compositions containing them and their use as antimicrobial and marine antifouling agents” (The Dow Chemical Company, priority 1994, dated 1996)
Values after ≈ are worked out from the molar mass of the structure shown. Where two headings read alike, the source gives them in different places.

Tests used:
[1] = test system: Pseudomonas aeruginosa; test: MIC in nutrient agar, Pseudomonas aeruginosa (Pa); type: cell-based, Pseudomonas aeruginosa (ATCC 10145); settings: Pa, 48 hours, read-out: Minimum Inhibitory Concentration (MIC)
Experimental: (§1) The minimum inhibitory concentration (MIC) for the compounds listed in Table I is determined for bacteria, using nutrient agar, and 7 yeast and fungi, using malt yeast agar. A one percent solution of the test compound is prepared in a mixture of acetone and water.
(§2) Nutrient agar is prepared at pH 6.8, representing a neutral medium, and at pH 8.2, representing an alkaline medium. The nutrient agars are prepared by adding 23 g of nutrient agar to one-liter of deionized water. In addition, the alkaline medium is prepared by adjusting a 0.04M solution of N-(tris-(hydroxymethyl)methyl)glycine buffered deionized water with concentrated sodium hydroxide to a pH of 8.5.
(§3) The test tubes containing the agar are cooled in a water bath until the temperature of the agar is 48° C. Then, an appropriate amount of the one percent solution of the test compound is added (except in the controls where no compound is added) to the respective test tubes so that the final concentrations are 500, 250, 100, 50, 25, 10, 2.5, 1.0 and zero parts per million of the test compound in the agar, thus having a known concentration of test compound dispersed therein. The contents of the test tubes are then transferred to respective petri plates. After drying for 24 hours, the petri plates containing nutrient agar are inoculated with bacteria and those containing malt yeast agar are inoculated with yeast and fungi.
(§4) The inoculation with bacteria is accomplished by using the following procedure. Twenty-four hour-cultures of each of the bacteria are prepared by incubating the respective bacteria in tubes containing nutrient broth for 24 hours at 30° C. in a shaker. Dilutions of each of the 24 hour-cultures are made so that nine separate suspensions (one for each of the nine test bacteria) are made, each containing 10^8 colony forming units (CFU) per mL of suspension of a particular bacteria. Aliquots of 0.3 mL of each of the bacterial suspensions are used to fill the individual wells of Steer's Replicator. For each microbial suspension, 0.3 mL was used to fill three wells (i.e., three wells of 0.3 mL each) so that for the nine different bacteria, 27 wells are filled. The Steer's Replicator is then used to inoculate both the neutral and alkaline pH nutrient agar petri plates.
(§5) The inoculated petri plates are incubated at 30° C. for 48 hours and then read to determine if the test compound which is incorporated into the agar prevented growth of the respective bacteria.
(§6) Table II lists the bacteria, yeast and fungi used in the MIC test described above along with their respective American Type Culture Collection (ATCC) identification numbers.
(§7) In Tables III and IV, the MIC values of the compounds described in Table I as compared to the MIC of a standard commercial preservative (with 1-(3-chloroalkyl)-3,5,7-triaza-1-azoniaadamantane chloride as the active agent and referred to in Tables III and IV as "STANDARD I") are set forth for the bacteria organisms and yeast/fungi organisms which are listed in Table II.

[2] = test system: Klebsiella pneumonias; test: MIC in nutrient agar, Klebsiella pneumonias; type: cell-based, Klebsiella pneumonias (ATCC 8308); settings: Kp, 48 hours, read-out: Minimum Inhibitory Concentration (MIC)
Experimental: as §1, §2, §3, §4, §5, §6, §7

[3] = test system: Staphylococcus aureus; test: MIC in nutrient agar, Staphylococcus aureus; type: cell-based, Staphylococcus aureus (ATCC 6538); settings: Sa, 48 hours, read-out: Minimum Inhibitory Concentration (MIC)
Experimental: as §1, §2, §3, §4, §5, §6, §7

[4] = test system: Trichoderma viride; test: MIC in malt yeast agar, Trichoderma viride; type: cell-based, Trichoderma viride (ATCC 8678); settings: Tv; malt yeast agar; 30° C.; 72 hours for fungi; read-out: Minimum Inhibitory Concentration (MIC)
Experimental: as §1
(§8) Malt yeast agar is prepared by adding 3 g yeast extract and 45 g malt agar per liter of deionized water. The specific agar is dispensed in 30 mL aliquots into 25×200 mm test tubes, capped and autoclaved for 15 minutes at 115° C.
as §3
(§9) The inoculation with the yeast and fungi is accomplished as follows. Cultures of yeast and fungi are incubated for seven days on malt yeast agar at 30° C. These cultures are used to prepare suspensions by the following procedure. A suspension of each organism is prepared by adding 10 mL of sterile saline and 10 microliters of octylphenoxy polyethoxy ethanol to the agar slant of yeast or fungi. The sterile saline/octylphenoxy polyethoxy ethanol solution is then agitated with a sterile swab to suspend the microorganism grown on the slant. Each resulting suspension is diluted into sterile saline (1 part suspension: 9 parts sterile saline). Aliquots of these dilutions are placed in individual wells of Steer's Replicator and petri plates inoculated as previously described. The petri plates are incubated at 30° C. and read after 48 hours for yeast and 72 hours for fungi.
as §6, §7

[5] = test system: Escherichia coli; test: MIC in nutrient agar, Escherichia coli; type: cell-based, Escherichia coli (ATCC 11229); settings: Ec, 48 hours, read-out: Minimum Inhibitory Concentration (MIC)
Experimental: as §1, §2, §3, §4, §5, §6, §7

[6] = test system: Pseudomonas aeruginosa (PRD-10); test: MIC in nutrient agar, Pseudomonas aeruginosa (PRD-10); type: cell-based, Pseudomonas aeruginosa (ATCC 15442); settings: PRD, 48 hours, read-out: Minimum Inhibitory Concentration (MIC)
Experimental: as §1, §2, §3, §4, §5, §6, §7

[7] = test system: Salmonella choleraesuis; test: MIC in nutrient agar, Salmonella choleraesuis; type: cell-based, Salmonella choleraesuis (ATCC 10708); settings: Salmonella enterica, Sc, 48 hours, read-out: Minimum Inhibitory Concentration (MIC)
Experimental: as §1, §2, §3, §4, §5, §6, §7

[8] = test system: Saccharomyces cerevisiae; test: MIC in malt yeast agar, Saccharomyces cerevisiae; type: cell-based, Saccharomyces cerevisiae (ATCC 4105); settings: Sc, malt yeast agar, 30° C., 48 hours for yeast, read-out: Minimum Inhibitory Concentration (MIC)
Experimental: as §1, §8, §3, §9, §6, §7

[9] = test system: Proteus vulgaris; test: MIC in nutrient agar, Proteus vulgaris; type: cell-based, Proteus vulgaris (ATCC 881); settings: Pv, 48 hours, read-out: Minimum Inhibitory Concentration (MIC)
Experimental: as §1, §2, §3, §4, §5, §6, §7

[10] = test system: Candida albicans; test: MIC in malt yeast agar, Candida albicans; type: cell-based, Candida albicans (ATCC 10231); settings: Ca; malt yeast agar; 30° C.; 48 hours for yeast; read-out: Minimum Inhibitory Concentration (MIC)
Experimental: as §1, §8, §3, §9, §6, §7

[11] = test system: Enterobacter aerogenes; test: MIC in nutrient agar, Enterobacter aerogenes; type: cell-based, Enterobacter aerogenes (ATCC 13048); settings: Klebsiella aerogenes, Ea, 30° C., 48 hours, read-out: Minimum Inhibitory Concentration (MIC)
Experimental: as §1, §2, §3, §4, §5, §6, §7

[12] = test system: Fusarium oxysporum; test: MIC in malt yeast agar, Fusarium oxysporum; type: cell-based, Fusarium oxysporum (ATCC 48112); settings: Fo; malt yeast agar; 30° C.; 72 hours for fungi; read-out: Minimum Inhibitory Concentration (MIC)
Experimental: as §1, §8, §3, §9, §6, §7

[13] = test system: Aureobasidium pullulan; test: MIC in malt yeast agar, Aureobasidium pullulan; type: cell-based, Aureobasidium pullulan (ATCC 16622); settings: Ap; malt yeast agar; 30° C.; 72 hours for fungi; read-out: Minimum Inhibitory Concentration (MIC)
Experimental: as §1, §8, §3, §9, §6, §7

[14] = test system: Penicillium chrysogenum; test: MIC in malt yeast agar, Penicillium chrysogenum; type: cell-based, Penicillium chrysogenum (ATCC 9480); settings: Pc; malt yeast agar; 30° C.; 72 hours for fungi; read-out: Minimum Inhibitory Concentration (MIC)
Experimental: as §1, §8, §3, §9, §6, §7

[15] = test system: Aspergillus niger; test: MIC in malt yeast agar, Aspergillus niger; type: cell-based, Aspergillus niger (ATCC 16404); settings: An; malt yeast agar; 30° C.; 72 hours for fungi; read-out: Minimum Inhibitory Concentration (MIC)
Experimental: as §1, §8, §3, §9, §6, §7

[16] = test system: Bacillus subtilis; test: MIC in nutrient agar, Bacillus subtilis; type: cell-based, Bacillus subtilis (ATCC 8473); settings: Bs, 48 hours, read-out: Minimum Inhibitory Concentration (MIC)
Experimental: as §1, §2, §3, §4, §5, §6, §7

SMILES | MIC ([1]; pH 6.8, 30° C.) | MIC ([1]; pH 8.2, 30° C.) | MIC ([2]; pH 6.8, 30° C.) | MIC ([2]; pH 8.2, 30° C.) | MIC ([3]; pH 6.8, 30° C.) | MIC ([3]; pH 8.2, 30° C.) | MIC [4] | MIC ([5]; pH 6.8, 30° C.) | MIC ([5]; pH 8.2, 30° C.) | MIC ([6]; pH 6.8, 30° C.) | MIC ([6]; pH 8.2, 30° C.) | MIC ([7]; pH 6.8, 30° C.) | MIC ([7]; pH 8.2, 30° C.) | MIC [8] | MIC ([9]; pH 6.8, 30° C.) | MIC ([9]; pH 8.2, 30° C.) | MIC [10] | MIC ([11]; pH 6.8) | MIC ([11]; pH 8.2) | MIC [12] | also measured
N#CSCSc1nsnc1Cl [Example 3, 4-chloro-3-thiomethylthiocyanato-1,2,5,-thiadiazole] | 25 µg/mL (≈ 112 µM) | 100 µg/mL (≈ 447 µM) | 25 µg/mL (≈ 112 µM) | 50 µg/mL (≈ 223 µM) | 25 µg/mL (≈ 112 µM) | 50 µg/mL (≈ 223 µM) | < 10 µg/mL | 25 µg/mL (≈ 112 µM) | 50 µg/mL (≈ 223 µM) | < 10 µg/mL | 25 µg/mL (≈ 112 µM) | 25 µg/mL (≈ 112 µM) | 50 µg/mL (≈ 223 µM) | < 10 µg/mL | < 10 µg/mL | 25 µg/mL (≈ 112 µM) | < 10 µg/mL | 25 µg/mL (≈ 112 µM) | 100 µg/mL (≈ 447 µM) | < 10 µg/mL | MIC [13]: < 10 µg/mL; MIC [14]: < 10 µg/mL; MIC [15]: < 10 µg/mL; MIC ([16]; pH 6.8, 30° C.): < 10 µg/mL; MIC ([16]; pH 8.2, 30° C.): 25 µg/mL (≈ 112 µM)
N#CSCCSc1nsnc1SCCSC#N [Example 5, Bis(thioethylthiocyanato)-1,2,5-thiadiazole] | > 500 µg/mL | > 500 µg/mL | > 500 µg/mL | > 500 µg/mL | > 500 µg/mL | > 500 µg/mL | > 500 µg/mL | > 500 µg/mL | > 500 µg/mL | > 500 µg/mL | > 500 µg/mL | > 500 µg/mL | > 500 µg/mL | < 10 µg/mL | > 500 µg/mL | > 500 µg/mL | 100 µg/mL (≈ 312 µM) | > 500 µg/mL | > 500 µg/mL | 250 µg/mL (≈ 780 µM) | MIC [13]: < 10 µg/mL; MIC [14]: < 10 µg/mL; MIC [15]: < 10 µg/mL; MIC ([16]; pH 6.8, 30° C.): > 500 µg/mL; MIC ([16]; pH 8.2, 30° C.): > 500 µg/mL
